Reference: patent US7101878B1 (Agouron Pharmaceuticals, Inc., priority 1998, dated 2006)
Like-named read-outs stand apart in the source and are kept apart here.

Target: T1, human GnRH receptor (Homo sapiens, UniProt P30968)
T1 construct: expressed in transfected cells; host or cells: HEK 293 (hGnRH-R/293, from Dr. Stuart Sealfon)
T1 sequence (P30968 1-328): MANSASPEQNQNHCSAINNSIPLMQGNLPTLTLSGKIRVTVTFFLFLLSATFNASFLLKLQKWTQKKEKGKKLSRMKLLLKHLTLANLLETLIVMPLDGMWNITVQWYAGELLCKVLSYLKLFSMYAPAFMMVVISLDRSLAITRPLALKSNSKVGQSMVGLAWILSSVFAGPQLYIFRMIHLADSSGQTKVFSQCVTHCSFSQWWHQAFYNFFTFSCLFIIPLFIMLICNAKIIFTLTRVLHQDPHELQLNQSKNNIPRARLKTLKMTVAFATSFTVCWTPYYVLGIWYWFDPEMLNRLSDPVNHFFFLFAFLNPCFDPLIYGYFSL
Assay: Radioligand binding, 125I-GnRH-A displacement, membranes of HEK 293 cells with human GnRH receptor
Conditions: for remaining activity at 10 µM: read-out: S%R 10 uM hGnRHR; for IC50: read-out: hGnRH IC50; for remaining activity at 1 µM: 1 uM compound, read-out: S%R 1 uM hGnRHR
Protocol: All compounds were diluted in 1% DMSO (final assay concentration) in binding assay buffer. […] Reactions were terminated by rapid filtration onto 96-well Packard GF/C filters soaked in 0.1% polyethyleneimine. Filters were washed three times with PBS buffer, dried and counted on a Packard Topcount by liquid scintillation counting.
Assay conditions were identical for assessing compound activities at other species. […] IC50 values for control peptides and test compounds were calculated utilizing GraphPad Prism™ software.
Crude compounds were tested using the competitive radioligand binding assay described above.
The reaction mixture was vortexed and incubated for 1 min at room temperature. After one min, the mixture was vortexed and allowed to incubate for an additional minute. 2 ml of 0.5 M acetic acid/1% BSA was added to the reaction tube and the mixture was added to a C18 Sep-Pak cartridge. The cartridge was washed with subsequent washes of 5 ml H2O and 5 ml 0.5M acetic acid and then eluted with 5×1 ml of 60% CH3CN/40% 0.5M acetic acid. The eluate was diluted with 3× volume of HPLC buffer A (0.1% TFA in H2O) and loaded onto a C18 column. The iodinated product was eluted over 20-25 min with a gradient of 25-100% CH3CN containing 0.1% TFA. The radioactive fractions (750 ed/fraction) are collected into clean polypropylene tubes containing 100 μl of 10% BSA. Fractions were assessed for biological activity by radioligand binding.
S%R is the substrate remaining.

[1] = 1 h, substrate remaining, 10 uM compound, closer to zero = closer to 100% inhibition
[2] = 1 uM, read-out: % Inhib. @ 1 uM hGnRH
[3] = 1 h, repeat of % Inhib. at 1 uM, read-out: Repeats @ 1 uM hGnRH
[4] = 1 h, substrate remaining, closer to zero = closer to 100% inhibition

Row | SMILES | inhibition at 1 µM [2] [%] | inhibition at 1 µM [3] [%] | further results
1 | Cc1cc2c(cc1Cc1ccc(C(=O)Nc3ccccc3C(=O)NCC(C)(C)CN(C)C)o1)C(C)(C)CCC2(C)C [Compound 344] | – | – | remaining activity at 10 µM [1]: 57%
2 | Cc1cc2c(cc1Cc1ccc(C(=O)Nc3c(C)cccc3C)o1)C(C)(C)CCC2(C)C [Compound 397] | – | – | remaining activity at 10 µM [1]: 43%
3 | CNc1ccccc1NC(=O)c1ccc(Cc2cc3c(cc2C)C(C)(C)CCC3(C)C)o1 [Compound 167] | – | – | IC50: 7640 nM
4 | Cc1ccc2nc(C)n(NC(=O)c3ccc(Cc4cc5c(cc4C)C(C)(C)CCC5(C)C)o3)c(=O)c2c1 | – | – | inhibition at 10 µM (repeat, read-out: Repeats @ 10 uM hGnRH (% inhib.)): -4%; inhibition at 10 µM (read-out: % inhib. @ 10 uM hGnRH): -4%
5 | Cc1cc2c(cc1Cc1ccc(C(=O)Nc3ccc4c(=O)[nH][nH]c(=O)c4c3)o1)C(C)(C)CCC2(C)C [Compound 385] | – | – | S%R 10 uM hGnRHR (substrate remaining, 10 uM compound, closer to zero = closer to 100% inhibition): 41%
6 | Cc1cc2c(cc1Cc1ccc(C(=O)N3CCc4cc(O)c(O)cc4C3C)o1)C(C)(C)CCC2(C)C (centres unmarked) | -13 | -5 | –
7 | Cc1cc2c(cc1Cc1ccc(C(=O)Nc3c(C)cccc3C(C)C)o1)C(C)(C)CCC2(C)C [Compound 394] | – | – | remaining activity at 10 µM [1]: 57%
8 | Cc1cc2c(cc1Cc1ccc(C(=O)Nc3cccnc3)o1)C(C)(C)CCC2(C)C [Compound 320] | – | – | remaining activity at 10 µM [1]: 9%
9 | Cc1cc2c(cc1Cc1ccc(C(=O)N(C)[C@H](C)[C@@H](O)c3ccccc3)o1)C(C)(C)CCC2(C)C | 20 | 23 | –
10 | COc1cccc(C)c1NC(=O)c1ccc(Cc2cc3c(cc2C)C(C)(C)CCC3(C)C)o1 [Compound 61] | – | – | IC50: 760 nM
11 | COc1ccc(CNC(=O)c2ccc(Cc3cc4c(cc3C)C(C)(C)CCC4(C)C)o2)cc1OC [Compound 411] | – | – | remaining activity at 1 µM [4]: 28%
12 | COc1cc(OC)c(NC(=O)c2ccc(Cc3cc(C4CCCCC4)ccc3C)o2)c(OC)c1 [Compound 304] | – | – | IC50: 303 nM
13 | Cc1cc2c(cc1Cc1ccc(C(=O)NC(c3ccccc3)c3ccccc3)o1)C(C)(C)CCC2(C)C [drawing 1077] | – | – | % Inhib. @ 1 uM hGnRH (1 uM): −7%; Repeats @ 1 uM hGnRH (repeat of % Inhib. at 1 uM): −7
14 | Cc1cc2c(cc1Cc1ccc(C(=O)NC3CCCCC3Cc3ccnc(NCC4CCCO4)n3)o1)C(C)(C)CCC2(C)C (centres unmarked) | 11 | 13 | –
15 | Cc1cc2c(cc1Cc1ccc(C(=O)Nc3ccc(N4CCOCC4)cc3)o1)C(C)(C)CCC2(C)C [Compound 30] | – | – | IC50: 1350 nM
16 | COc1ccc(C(O)C(CO)NC(=O)c2ccc(Cc3cc4c(cc3C)C(C)(C)CCC4(C)C)o2)cc1 (centres unmarked) | -11 | 24 | –
17 | COc1cccc(CNC(=O)c2ccc(Cc3cc4c(cc3C)C(C)(C)CCC4(C)C)o2)c1OC [Compound 410] | – | – | remaining activity at 1 µM [4]: 21%
18 | Cc1cc2c(cc1Cc1ccc(C(=O)NCC3CN(Cc4ccccc4)CCO3)o1)C(C)(C)CCC2(C)C (centres unmarked) [drawing 1049] | 35 | 42 | –
19 | Cc1cc2c(cc1Cc1ccc(C(=O)Nc3ccc(O)c(C)c3C)o1)C(C)(C)CCC2(C)C [Compound 376] | – | – | remaining activity at 10 µM [1]: 50%
20 | Cc1cc2c(cc1Cc1ccc(C(=O)N3CCN(c4ccc(O)cc4)CC3)o1)C(C)(C)CCC2(C)C | -12 | -6 | –
21 | Cc1cc2c(cc1Cc1ccc(C(=O)N3CCN(c4ccc(Cl)cc4)CC3)o1)C(C)(C)CCC2(C)C | -11 | -17 | –

Row | SMILES | inhibition at 1 µM [2] [%] | inhibition at 1 µM [3] [%] | further results
22 | Cc1cc2c(cc1Cc1ccc(C(=O)N3CCN(c4ccccc4Cl)CC3)o1)C(C)(C)CCC2(C)C | -1 | -7 | –
23 | COc1ccccc1NC(=O)c1ccc(Cc2cc3c(cc2C)C(C)(C)CCC3(C)C)o1 [Compound 358] | – | – | remaining activity at 10 µM [1]: 9%
24 | Cc1cc2c(cc1Cc1ccc(C(=O)NCc3cc4c5ccccc5n(Cc5cc(Cl)ccc5Cl)c4cn3)o1)C(C)(C)CCC2(C)C | -34 | -38 | –
25 | Cc1cc2c(cc1Cc1ccc(C(=O)Nc3ccc(N(C)C)cc3)o1)C(C)(C)CCC2(C)C [Compound 335] | – | – | remaining activity at 10 µM [1]: 2%
26 | CCc1cccc(C)c1NC(=O)c1ccc(Cc2cc3c(cc2C)C(C)(C)CCC3(C)C)o1 [Compound 399] | – | – | remaining activity at 10 µM [1]: 41%
27 | Cc1cc2c(cc1Cc1ccc(C(=O)Nc3ncccc3C)o1)C(C)(C)CCC2(C)C [Compound 379] | – | – | remaining activity at 10 µM [1]: 4%
28 | COc1cc(OC)c(NC(=O)c2ccc(Cc3c(OC)ccc(OC)c3OC)o2)c(OC)c1 [Compound 209] | – | – | IC50: 4380 nM
29 | COC(CNC(=O)c1ccc(Cc2cc3c(cc2C)C(C)(C)CCC3(C)C)o1)OC [Compound 131] | – | – | IC50: 600 nM
30 | COc1cc(OC)c(Cc2ccc(C(=O)Nc3c(OC)cccc3OC)o2)c(OC)c1 [Compound 220] | – | – | IC50: 630 nM
31 | Cc1cc2c(cc1Cc1ccc(C(=O)Nc3ccccc3O)o1)C(C)(C)CCC2(C)C [Compound 342] | – | – | remaining activity at 10 µM [1]: 45%
32 | COc1ccc(CCN(C)C(=O)c2ccc(Cc3cc4c(cc3C)C(C)(C)CCC4(C)C)o2)cc1OC | 13 | 7 | –
33 | Cc1ccccc1CNC(=O)c1ccc(Cc2cc3c(cc2C)C(C)(C)CCC3(C)C)o1 [Compound 413] | – | – | remaining activity at 1 µM [4]: 16%
34 | CCN(CC)C(=O)c1ccc(Cc2cc3c(cc2C)C(C)(C)CCC3(C)C)o1 [Compound 238] | – | – | IC50: 7830 nM
35 | Cc1cc2c(cc1Cc1ccc(C(=O)NCc3ccco3)o1)C(C)(C)CCC2(C)C [Compound 407] | – | – | remaining activity at 1 µM [4]: 20%
36 | Cc1cc2c(cc1Cc1ccc(C(=O)NC3CCCC(Nc4ccnc(NCC5CCCO5)n4)C3)o1)C(C)(C)CCC2(C)C (centres unmarked) [drawing 1045] | 17 | 25 | –
37 | COc1ccc(CNC(=O)c2ccc(Cc3cc4c(cc3C)C(C)(C)CCC4(C)C)o2)c(OC)c1 [Compound 450] | – | – | remaining activity at 1 µM [4]: 6%
38 | Cc1cc2c(cc1Cc1ccc(C(=O)Nc3ccccc3C(=O)NCc3cccnc3)o1)C(C)(C)CCC2(C)C [Compound 352] | – | – | remaining activity at 10 µM [1]: 51%
39 | Cc1cccc(NC(=O)c2ccc(Cc3cc4c(cc3C)C(C)(C)CCC4(C)C)o2)c1 [Compound 364] | – | – | remaining activity at 10 µM [1]: 21%
40 | COc1ccc(OC)c(NC(=O)c2ccc(Cc3cc4c(cc3C)C(C)(C)CCC4(C)C)o2)c1 [Compound 330] | – | – | remaining activity at 10 µM [1]: 10%
41 | Cc1cc2c(cc1Cc1ccc(C(=O)NCc3ccc(F)cc3F)o1)C(C)(C)CCC2(C)C [Compound 445] | – | – | remaining activity at 1 µM [4]: 22%

Further lines, with some results ahead:

Row | inhibition at 1 µM [2] [%] | inhibition at 1 µM [3] [%] | SMILES | further results
42 | 68 | 71 | Cc1cc2c(cc1Cc1ccc(C(=O)NCCCN3CCCC3=O)o1)C(C)(C)CCC2(C)C [drawing 1131] | –
43 | 93 | 95 | Cc1cc2c(cc1Cc1ccc(C(=O)NCCOc3ccccc3)o1)C(C)(C)CCC2(C)C [drawing 1182] | –
44 | 53 | 58 | Cc1cc2c(cc1Cc1ccc(C(=O)NC(C)c3ccccc3)o1)C(C)(C)CCC2(C)C (centres unmarked) [drawing 1138] | –
45 | 63 | 64 | Cc1cc2c(cc1Cc1ccc(C(=O)NCCc3cccs3)o1)C(C)(C)CCC2(C)C [drawing 1023] | –
46 | -2 | 4 | Cc1cc2c(cc1Cc1ccc(C(=O)NCCc3cccc(Oc4ccccc4)c3)o1)C(C)(C)CCC2(C)C [drawing 1039] | –
47 | 62 | 67 | Cc1cc2c(cc1Cc1ccc(C(=O)NCc3ccccn3)o1)C(C)(C)CCC2(C)C [drawing 984] | –
48 | 42 | 53 | COc1ccc(CCNC(=O)c2ccc(Cc3cc4c(cc3C)C(C)(C)CCC4(C)C)o2)cc1 [drawing 1173] | –
49 | -40 | 17 | Cc1cc2c(cc1Cc1ccc(C(=O)NCCc3c(Cl)cccc3Cl)o1)C(C)(C)CCC2(C)C | –
50 | 89 | 92 | COc1ccc(CNC(=O)c2ccc(Cc3cc4c(cc3C)C(C)(C)CCC4(C)C)o2)cc1 [drawing 1098] | –
51 | 87 | 90 | Cc1ccc(CNC(=O)c2ccc(Cc3cc4c(cc3C)C(C)(C)CCC4(C)C)o2)cc1 [drawing 1175] | –
52 | 38 | 41 | Cc1cc2c(cc1Cc1ccc(C(=O)NCCc3ccc(S(N)(=O)=O)cc3)o1)C(C)(C)CCC2(C)C [drawing 989] | –
53 | 14 | 21 | Cc1cc2c(cc1Cc1ccc(C(=O)N(C)Cc3ccccc3Cl)o1)C(C)(C)CCC2(C)C | –
54 | 1 | 41 | Cc1cc2c(cc1Cc1ccc(C(=O)NCc3ccccc3OC(F)(F)F)o1)C(C)(C)CCC2(C)C | –
